Measured values taken from patent publication US20250339569A1, “CARBONIC ANHYDRASE IX LIGANDS” (priority 2021, published 2025).
Read-outs that look alike come from different tables or passages of the source. Starred links: 1 amine or outer side, 2 acyl side, 3 side chain; linkers in the order of their positions; H or OH if unused. Positions of bridges follow the written chain, without caps; N, C: chain ends. Non-standard residues stand in square brackets, D forms with d. Residues, ends and D or L forms follow the SMILES beside them. *: point of attachment. X69 = CC1(C)C(/C=C/C=C/C=C2\N(CCCCS(=O)(=O)O)c3ccccc3C2(C)C)=[N+](CCCCCC(=O)*)c2ccccc21; Phe(3-NHCO(CH2)3SO2NH2) = N[C@@H](Cc1cccc(NC(=O)CCCS(N)(=O)=O)c1)C(=O)O; X4 = CS(=O)(=O)CC(=O)Nc1cccc(C[C@H](N[*:1])C(=O)[*:2])c1; DOTA = O=C(O)CN1CCN(CC(=O)O)CCN(CC(=O)*)CCN(CC(=O)O)CC1; X5 = O=C(O)CCCC(=O)Nc1cccc(C[C@H](N[*:1])C(=O)[*:2])c1; X6 = O=C(O)CCC(=O)Nc1cccc(C[C@H](N[*:1])C(=O)[*:2])c1; mXylylene = c1cc(C[*:1])cc(C[*:2])c1; X2 = O=C(CN1CCC(N[*:1])CC1)[*:2]; Dap = NC[C@H](N)C(=O)O

Assays:
[1] = molecular target: T1, CAIX-expressing human HT-29 colorectal cancer cells (Homo sapiens, UniProt Q16790); assay: FACS binding assay (EC50 determination, labeled compound); conditions: biotinylated or fluorophore-labeled compound, HT-29 cells, 4°C, 1 hour, read-out: pEC50 category (activity) (converted)
T1 construct: CAIX-expressing human HT-29 colorectal cancer cells; host or cells: HT-29 human colorectal cancer cells
Method: In order to determine binding of compounds according to the present invention to CAIX-expressing cells, a FACS binding assay was established.
CAIX-expressing human HT-29 colorectal cancer cells (DSMZ, RRID: CVCL_0320) were cultured in McCoys's 5A modified medium (Biochrom, #F1015) including 10% fetal calf serum (FCS), 2 mM L-glutamine, 100 U/ml penicillin and 100 μg/mL streptomycin. Cells were detached with Accutase (Biolegend, #423201) and washed in FACS buffer (PBS including 1% FCS). Cells were diluted in FACS buffer to a final concentration of 500.000 cells per ml. 200 μL of the cell suspension were transferred to a u-shaped non-binding 96-well plate (Greiner) and cells were washed in ice-cold FACS buffer.
When biotinylated compounds were used an additional incubation step with 1 μg/mL APC-Streptavidin (Miltenyi; #130-106-791) in 50 μL FACS buffer for 30 minutes on ice was performed.
Cells were washed twice with ice-cold FACS buffer and analyzed in an Attune NxT flow cytometer (Thermo Fisher). Median fluorescence intensities (MFI) of the APC/Cy5-channel were calculated by Attune NxT software. MFI values were plotted against peptide concentration and four parameter logistic (4PL) curve fitting and EC50/pEC50 or IC50/pIC50 calculations were performed using ActivityBase software.

[2] = Plasma stability assay, mouse plasma; conditions: mouse plasma, 37°C, 24 h
[3] = molecular target: T1, CAIX-expressing human HT-29 colorectal cancer cells; assay: FACS binding assay (IC50 determination, competition with tracer 3BP-2776 or 3BP-4149); conditions: FACS binding assay, HT-29 cells, 4° C., 1 hour, read-out: pIC50 category (activity) (converted)
Summary of the method: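 HT-29 cells in FACS buffer (PBS, 1% FCS) at 500.000 cells/ml were exposed to compounds competing with a labelled tracer, with biotinylated compounds detected by 1 μg/mL APC-streptavidin for 30 min on ice. APC/Cy5 median fluorescence was read by flow cytometry and IC50 derived by 4PL fit.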

[4] = molecular target: T2, human carbonic anhydrase IX (hCAIX-Fc) (Homo sapiens, UniProt Q16790); assay: Surface plasmon resonance assay with hCAIX-Fc; format: binding; conditions: 25° C.; for t1/2 category (activity): SPR dissociation half-life, hCAIX-Fc; for Kd: SPR, hCAIX-Fc captured, read-out: pKD category (activity) (converted)
T2 construct: purchased SinoBliological (Sino Biological) 10107-H02H

[5] = molecular target: T3, CAXIV (hCAXIV-bio) (Homo sapiens, UniProt Q9ULX7); assay: SPR selectivity assay with biotinylated CAXIV; format: binding; conditions: SPR, biotinylated CAXIV; read-out: pKD category (affinity) CAXIV (converted)
T3 construct: purchased SinoBliological (Sino Biological) 10458-H08H
T3 sequence (Q9ULX7 16-337): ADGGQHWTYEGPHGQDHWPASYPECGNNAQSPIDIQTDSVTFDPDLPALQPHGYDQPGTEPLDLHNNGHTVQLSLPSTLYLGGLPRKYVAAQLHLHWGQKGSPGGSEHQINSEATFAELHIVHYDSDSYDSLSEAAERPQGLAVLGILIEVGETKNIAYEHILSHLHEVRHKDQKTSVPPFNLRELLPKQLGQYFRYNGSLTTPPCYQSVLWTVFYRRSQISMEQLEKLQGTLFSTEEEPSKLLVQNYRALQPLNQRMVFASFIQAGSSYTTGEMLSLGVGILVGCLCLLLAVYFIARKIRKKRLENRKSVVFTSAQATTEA
Method: (§1) In order to test selectivity of CAIX-binding peptides toward CAIV (SinoBliological, Cat #10472-1H081H), CAXII (SinoBliological, Cat #10617-H08H or CAXIV (SinoBliological, Cat #10458-H08H), SPR assays were performed analog to the assay described above but with a different target capture procedure. For immobilization, the carbonic anhydrases were biotinylated and capture on the SPR chip using the Biotin CAPture Kit (cytiva) according to the manufacturer instructions using HBSTE, 0.1% as Running Buffer.
(§2) Table 13 describes the protocol steps for biotinylated target capturing and assessment of the binding kinetics.

[6] = molecular target: T4, CAXII (hCAXII-bio) (Homo sapiens, UniProt O43570); assay: SPR selectivity assay with biotinylated CAXII; format: binding; conditions: SPR, biotinylated CAXII; read-out: pKD category (affinity) CAXII (converted)
T4 construct: purchased SinoBliological (Sino Biological) 10617-H08H
T4 sequence (O43570 25-354): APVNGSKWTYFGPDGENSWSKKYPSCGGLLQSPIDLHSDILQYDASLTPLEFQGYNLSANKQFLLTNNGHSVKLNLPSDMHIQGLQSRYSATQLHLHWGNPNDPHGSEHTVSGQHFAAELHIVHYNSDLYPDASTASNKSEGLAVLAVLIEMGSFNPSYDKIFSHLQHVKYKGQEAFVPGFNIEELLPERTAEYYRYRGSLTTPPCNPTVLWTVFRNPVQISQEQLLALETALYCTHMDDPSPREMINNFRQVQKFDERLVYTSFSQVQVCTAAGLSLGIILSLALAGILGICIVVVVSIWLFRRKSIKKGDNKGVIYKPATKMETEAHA
Method: as §1, §2

[7] = molecular target: T5, CAIV (hCAIV-bio) (Homo sapiens, UniProt P22748); assay: SPR selectivity assay with biotinylated CAIV; format: binding; conditions: SPR, biotinylated CAIV; read-out: pKD category (affinity) CAIV (converted)
T5 construct: purchased SinoBliological (Sino Biological) 10472-1H081H
T5 sequence (P22748 19-284): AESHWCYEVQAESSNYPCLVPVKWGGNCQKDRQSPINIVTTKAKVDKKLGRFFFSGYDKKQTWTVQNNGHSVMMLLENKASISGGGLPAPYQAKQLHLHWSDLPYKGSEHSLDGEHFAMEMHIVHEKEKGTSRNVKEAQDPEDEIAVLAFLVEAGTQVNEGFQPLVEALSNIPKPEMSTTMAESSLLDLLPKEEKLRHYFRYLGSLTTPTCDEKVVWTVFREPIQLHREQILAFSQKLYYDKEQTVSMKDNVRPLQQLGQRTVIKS
Method: as §1, §2

[8] = mouse, plasma, 24 h
[9] = competition with tracer 3BP-2776 (10 nM, biotin-labeled)
[10] = competition with tracer 3BP-4149 (3 nM, Cy5-labeled)

Structure (SMILES)	EC50 [1] [nM]	% intact compound remaining (incubation time) [2] [%]	IC50 [3, 9] [nM]	t1/2 category (activity) [4]	Kd [4] [nM]	Kd [5] [nM]	Kd [6] [nM]	Kd [7] [nM]	% intact compound remaining (incubation time) [8] [%]	IC50 [3, 10] [nM]
CC(C)C[C@@H]1NC(=O)[C@H](Cc2c[nH]c3ccccc23)NC(=O)[C@H](CC(=O)O)NC(=O)[C@H]2CCCN2C(=O)[C@H](CCC(=O)O)NC(=O)[C@@H](NC(=O)[C@H](Cc2ccc(O)cc2)NC(=O)[C@@H](NC(=O)CN2CCC(NC(=O)CCCCC[N+]3=C(/C=C/C=C/C=C4\N(CCCCS(=O)(=O)O)c5ccccc5C4(C)C)C(C)(C)c4ccccc43)CC2)C(C)C)CSCc2cccc(c2)CSC[C@@H](C(N)=O)NC(=O)[C@H](CO)NC(=O)[C@H](Cc2c[nH]c3ccccc23)NC(=O)[C@H]([C@@H](C)O)NC1=O [3BP-4149, Cy5SO3-APAc-Val-Tyr-[Cys(3MeBn)-Glu-pro-Asp-Trp-Leu-Thr-Trp-Ser-Cys]-NH2] (X69-[X2]VYCE[dP]DWLTWSC-NH2; linker 4-13 via mXylylene)	< 10	–	–	–	–	–	–	–	–	–
CC(C)C[C@@H]1NC(=O)[C@H](Cc2c[nH]c3ccccc23)NC(=O)[C@H](CC(=O)O)NC(=O)[C@H]2CCCN2C(=O)[C@H](CCC(=O)O)NC(=O)[C@@H]2CSCc3cccc(c3)CSC[C@@H](C(N)=O)NC(=O)[C@H](CNC(=O)C[C@H](NC(=O)[C@@H](NC(=O)CN3CCC(NC(=O)CN4CCN(CC(=O)O)CCN(CC(=O)O)CCN(CC(=O)O)CC4)CC3)C(C)C)C(=O)N2)NC(=O)[C@H](Cc2c[nH]c3ccccc23)NC(=O)[C@H]([C@@H](C)O)NC1=O [3BP-4174, DOTA-APAc-Val-{Asp-[Cys(3MeBn)-Glu-pro-Asp-Trp-Leu-Thr-Trp-Dap}-Cys]-NH2] ({DOTA}-[X2]VDCE[dP]DWLTW[Dap]C-NH2; lactam 3-12; linker 4-13 via mXylylene)	–	>95	< 10	A (t1/2>15.0 minutes)	< 10	> 1000	> 1000	> 1000	–	–
CC(C)C[C@@H]1NC(=O)[C@H](Cc2cccc(NC(=O)CCC(=O)O)c2)NC(=O)[C@H](CC(=O)O)NC(=O)[C@H]2CCCN2C(=O)[C@H](CCC(=O)O)NC(=O)[C@@H](NC(=O)[C@H](Cc2ccc(O)cc2)NC(=O)[C@@H](NC(=O)CN2CCC(NC(=O)CN3CCN(CC(=O)O)CCN(CC(=O)O)CCN(CC(=O)O)CC3)CC2)C(C)C)CSCc2cccc(c2)CSC[C@@H](C(N)=O)NC(=O)[C@H](CO)NC(=O)[C@H](Cc2c[nH]c3ccccc23)NC(=O)[C@H]([C@@H](C)O)NC1=O [3BP-4237, DOTA-APAc-Val-Tyr-[Cys(3MeBn)-Glu-pro-Asp-Af3(HO-Succinyl)-Leu-Thr-Trp-Ser-Cys]-NH2] ({DOTA}-[X2]VYCE[dP]D[X6]LTWSC-NH2; linker 4-13 via mXylylene)	–	–	< 10	A (t1/2>15.0 minutes)	< 10	–	–	–	>95	–
CC(C)C[C@@H]1NC(=O)[C@H](Cc2cccc(NC(=O)CS(C)(=O)=O)c2)NC(=O)[C@H](CC(=O)O)NC(=O)[C@H]2CCCN2C(=O)[C@H](CCC(=O)O)NC(=O)[C@@H](NC(=O)[C@H](Cc2ccc(O)cc2)NC(=O)[C@@H](NC(=O)CN2CCC(NC(=O)CN3CCN(CC(=O)O)CCN(CC(=O)O)CCN(CC(=O)O)CC3)CC2)C(C)C)CSCc2cccc(c2)CSC[C@@H](C(N)=O)NC(=O)[C@H](CO)NC(=O)[C@H](Cc2c[nH]c3ccccc23)NC(=O)[C@H]([C@@H](C)O)NC1=O [3BP-4242] ({DOTA}-[X2]VYCE[dP]D[X4]LTWSC-NH2; linker 4-13 via mXylylene)	–	–	< 10	B (t1/2 between 5.1 and 15.0 minutes)	< 10	–	–	–	>95	–
CC(C)C[C@@H]1NC(=O)[C@H](Cc2cccc(NC(=O)CCCC(=O)O)c2)NC(=O)[C@H](CC(=O)O)NC(=O)[C@H]2CCCN2C(=O)[C@H](CCC(=O)O)NC(=O)[C@@H](NC(=O)[C@H](Cc2ccc(O)cc2)NC(=O)[C@@H](NC(=O)CN2CCC(NC(=O)CN3CCN(CC(=O)O)CCN(CC(=O)O)CCN(CC(=O)O)CC3)CC2)C(C)C)CSCc2cccc(c2)CSC[C@@H](C(N)=O)NC(=O)[C@H](CO)NC(=O)[C@H](Cc2c[nH]c3ccccc23)NC(=O)[C@H]([C@@H](C)O)NC1=O [3BP-4367] ({DOTA}-[X2]VYCE[dP]D[X5]LTWSC-NH2; linker 4-13 via mXylylene)	–	–	–	A (t1/2>15.0 minutes)	< 10	–	–	–	>95	< 10
CC(C)C[C@@H]1NC(=O)[C@H](Cc2cccc(NC(=O)CCCS(N)(=O)=O)c2)NC(=O)[C@H](CC(=O)O)NC(=O)[C@H]2CCCN2C(=O)[C@H](CCC(=O)O)NC(=O)[C@@H](NC(=O)[C@H](Cc2ccc(O)cc2)NC(=O)[C@@H](NC(=O)CN2CCC(NC(=O)CN3CCN(CC(=O)O)CCN(CC(=O)O)CCN(CC(=O)O)CC3)CC2)C(C)C)CSCc2cccc(c2)CSC[C@@H](C(N)=O)NC(=O)[C@H](CO)NC(=O)[C@H](Cc2c[nH]c3ccccc23)NC(=O)[C@H]([C@@H](C)O)NC1=O [3BP-4369] ({DOTA}-[X2]VYCE[dP]D[Phe(3-NHCO(CH2)3SO2NH2)]LTWSC-NH2; linker 4-13 via mXylylene)	–	–	–	A (t1/2>15.0 minutes)	< 10	–	–	–	>95	< 10
